Source: patent US7786045B2, “Aryl ether compounds and their preparation and use thereof” (Sinochem Corporation, priority 2005, dated 2010)

Columns and labels:
[1] = test system: rice sheath blight (Rhizoctonia solani); assay: Whole-plant fungicidal test, protectant activity, rice sheath blight; format: in vivo
[2] = test system: cucumber downy mildew (Pseudoperonospora cubenis); assay: Whole-plant fungicidal test, cucumber downy mildew; format: in vivo, Pseudoperonospora cubensis
[3] = test system: wheat powdery mildew (BLumeria graminis); assay: Whole-plant fungicidal test, protectant activity, wheat powdery mildew; format: in vivo; settings: for control against wheat powdery mildew: 500 mg/L
wheat powdery mildew = assay: Whole-plant fungicidal test, curative activity, wheat powdery mildew; format: in vivo, Erysiphe graminis; settings: for inhibition at 0.39 µg/mL / inhibition at 0.78 µg/mL / inhibition at 1.56 µg/mL / inhibition at 3.125 µg/mL / inhibition at 6.25 µg/mL / inhibition at 12.5 µg/mL: Triticum aestivum, 96 h, read-out: 4 day curative activity (%) against wheat powdery mildew
[4] = test system: rice blast (Pyricularia oryzae); format: in vivo; settings: in words
[5] = test system: apple alternaria rot (valsa mali); assay: Whole-plant fungicidal test, apple alternaria rot; format: in vivo; settings: in words
[6] = test system: diamond backmoth (Plutella xylostella); assay: Insecticidal activity, diamond backmoth, spraying; settings: 200 mg/L; mortality after two days
Description: (§1) Determination of insecticidal and acaricidal activities of selected compounds were carried out by following procedure:
(§2) Technical samples were dissolved in mixed solvent (acetone:methanol=1:1), and diluted to required concentration with water containing 0.1% of tween 80.
(§3) The second instar larvae of armyworm (Leucania separata), diamond backmoth (Plutella xylostella) and culex mosquitoes (Culex pipiens pallens), green peach aphids (Myzus persicae) and mite (Tetranychus cinnabarinus) were used in biological test. The method was employed either spraying by airbrush or immersing (larvae of culex mosquitoes). A test solution (0.5 mL) was sprayed at the pressure of 10 psi (about 0.7 kg/cm^2). Percent mortality was determined after two days.

[7] = test system: tomato cercospora leaf mold (Fulvia fulva); assay: Whole-plant fungicidal test, tomato cercospora leaf mold; format: in vivo; settings: in words
[8] = test system: tomato late blight (Phytophthora infestans); format: in vivo; settings: in words
[9] = test system: cucumber powdery mildew (Sphaerotheca fuliginea); assay: Whole-plant fungicidal test, cucumber powdery mildew; format: in vivo; settings: in words
[10] = test system: wheat head blight (Fusarium graminearum); format: in vivo; settings: in words
[11] = test system: rape sclerotinia stem rot (Sclerotinia sclerotiorum); assay: Whole-plant fungicidal test, rape sclerotinia stem rot; format: in vivo; settings: in words
[12] = test system: cucumber scab (Cladosporium cucumerinum); assay: Whole-plant fungicidal test, cucumber scab; format: in vivo; settings: in words
[13] = test system: cucumber anthracnose (Colletotrichum lagenarium); assay: Whole-plant fungicidal test, cucumber anthracnose; format: in vivo
[14] = test system: corn southern leaf blight (Helminthosporium maydis); assay: Whole-plant fungicidal test, corn southern leaf blight; format: in vivo; settings: in words
Description: Protectant and curative activity of experimental compounds are tested with whole plants. […] For the protectant method, test solution was sprayed onto potted plant. Pathogen inoculation was carried out after 24 hours then plants were hold in growth chambers containing constant temperature and moisture for effect. When untreated plant was under desirable disease severity (after 1 week approximately), assessment were carried out by visual observation. Test plant inoculated with fungus for 4 days are sprayed with the solution of a compound and then cultured in green house for 3-4 days. The curative activity is assessed based on the control plant's index of disease.

[15] = test system: cucumber grey mold (Botrytis cinerea); assay: Whole-plant fungicidal test, cucumber grey mold; format: in vivo; settings: 500 mg/L
[16] = test system: green peach aphids (Myzus persicae); assay: Insecticidal activity, green peach aphids, spraying; settings: 200 mg/L; mortality after two days
Description: as §1, §2, §3

Q: Which results are given for COC(=O)NC(=S)Nc1ccccc1NC(=S)NC(=O)OC [triophanate-methyl, reference compound]?
A: 1 day protection activity (%) against rice sheath blight ([1]; 1.5625 mg/L): 0%; 1 day protection activity (%) against rice sheath blight ([1]; 3.125 mg/L): 0%; 1 day protection activity (%) against rice sheath blight ([1]; 6.25 mg/L): 0%; 1 day protection activity (%) against rice sheath blight ([1]; 12.5 mg/L): 0%; 1 day protection activity (%) against rice sheath blight ([1]; 25 mg/L): 20%; 1 day protection activity (%) against rice sheath blight ([1]; 50 mg/L): 55%; 1 day protection activity (%) against rice sheath blight ([1]; 100 mg/L): 75%

Q: How did the “control against cucumber downy mildew” value ([2]; 25 mg/L) turn out when COC(=O)N(OC)c1ccccc1COc1c(C)c(-c2ccc(C)cc2)nn1C [Compound 78] was run?
A: Its value is 100%.

Q: And the “control against cucumber downy mildew” value ([2]; 500 mg/L)?
A: The value was 100%.

Q: And the “control against wheat powdery mildew” value [3]?
A: The value was 100%.

Q: How did the “control against cucumber downy mildew” value ([2]; 500 mg/L) turn out when CNC(=O)C(=NOC)c1ccccc1COc1cc(-c2cccs2)nn1C [Compound 415] was run?
A: Its value is 100%.

Q: How did the inhibition at 0.39 µg/mL (wheat powdery mildew; 0.39 mg/L) turn out when CC(C)(C)C(O)(CCc1ccc(Cl)cc1)Cn1cncn1 (stereo not drawn) [tebuconazole] was run?
A: The inhibition at 0.39 µg/mL was 0%.

Q: And the inhibition at 0.78 µg/mL (wheat powdery mildew; 0.78 mg/L)?
A: The inhibition at 0.78 µg/mL was 0%.

Q: And the inhibition at 1.56 µg/mL (wheat powdery mildew; 1.56 mg/L)?
A: The inhibition at 1.56 µg/mL was 15%.

Q: What about the inhibition at 3.125 µg/mL (wheat powdery mildew; 3.125 mg/L) of the same molecule?
A: The inhibition at 3.125 µg/mL was 45%.

Q: And the inhibition at 6.25 µg/mL (wheat powdery mildew; 6.25 mg/L)?
A: The inhibition at 6.25 µg/mL was 70%.

Q: What about the inhibition at 12.5 µg/mL (wheat powdery mildew; 12.5 mg/L) of the same molecule?
A: Its inhibition at 12.5 µg/mL is 85%.

Q: Which “control against cucumber downy mildew” value ([2]; 500 mg/L) does the source give for COC(=O)N(OC)c1ccccc1COc1cc(-c2ccccc2)nn1C [Compound 1] here?
A: The value was 100%.

Q: Which inhibition at 0.39 µg/mL (wheat powdery mildew; 0.39 mg/L) does the source give for COC(=O)N(OC)c1ccccc1COc1ccn(-c2ccc(Cl)cc2)n1 [pyraclostrobin] here?
A: Its inhibition at 0.39 µg/mL is 0%.

Q: What about the inhibition at 0.78 µg/mL (wheat powdery mildew; 0.78 mg/L) of the same molecule?
A: Its inhibition at 0.78 µg/mL is 25%.

Q: And the inhibition at 1.56 µg/mL (wheat powdery mildew; 1.56 mg/L)?
A: Its inhibition at 1.56 µg/mL is 60%.

Q: And the inhibition at 3.125 µg/mL (wheat powdery mildew; 3.125 mg/L)?
A: The inhibition at 3.125 µg/mL was 85%.

Q: What about the inhibition at 6.25 µg/mL (wheat powdery mildew; 6.25 mg/L) of the same molecule?
A: The inhibition at 6.25 µg/mL was 100%.

Q: What about the inhibition at 12.5 µg/mL (wheat powdery mildew; 12.5 mg/L) of the same molecule?
A: The inhibition at 12.5 µg/mL was 100%.

Q: With COC(=O)N(OC)c1ccccc1COc1cc(-c2ccc(C)cc2)nn1C [Compound 16] as the molecule, how does the “control against wheat powdery mildew” value [3] read?
A: The value was 100%.

Q: Which “control against cucumber downy mildew” value ([2]; 500 mg/L) does the source give for COC=C(C(=O)OC)c1ccccc1COc1cc(-c2cccs2)nn1C [Compound 367] here?
A: The value was 100%.

Q: With COC(=O)N(OC)c1ccccc1COc1cc(-c2ccccc2Cl)nn1C [Compound 20] as the molecule, how does the “control against cucumber downy mildew” value ([2]; 25 mg/L) read?
A: The value was 100%.

Q: What about the “control against cucumber downy mildew” value ([2]; 500 mg/L) of the same molecule?
A: Its value is 100%.

Q: And the “control against wheat powdery mildew” value [3]?
A: The value was 100%.

Q: How did the “control against cucumber downy mildew” value ([2]; 500 mg/L) turn out when CON=C(C(=O)OC)c1ccccc1COc1cc(-c2cccs2)nn1C [Compound 391] was run?
A: Its value is 90%.

Q: For CO/N=C(/C(=O)OC)c1ccccc1COc1ccccc1C [Kresoxim methyl, reference compound], which inhibition at 0.39 µg/mL (wheat powdery mildew; 0.39 mg/L) is on record?
A: Its inhibition at 0.39 µg/mL is 0%.

Q: And the inhibition at 0.78 µg/mL (wheat powdery mildew; 0.78 mg/L)?
A: The inhibition at 0.78 µg/mL was 0%.

Q: What about the inhibition at 1.56 µg/mL (wheat powdery mildew; 1.56 mg/L) of the same molecule?
A: The inhibition at 1.56 µg/mL was 10%.

Q: What about the inhibition at 3.125 µg/mL (wheat powdery mildew; 3.125 mg/L) of the same molecule?
A: Its inhibition at 3.125 µg/mL is 15%.

Q: And the inhibition at 6.25 µg/mL (wheat powdery mildew; 6.25 mg/L)?
A: Its inhibition at 6.25 µg/mL is 20%.

Q: And the inhibition at 12.5 µg/mL (wheat powdery mildew; 12.5 mg/L)?
A: The inhibition at 12.5 µg/mL was 100%.

Q: And the inhibition at 0.39 µg/mL ([3]; Blumeria graminis, 24 h, 0.39 mg/L, read-out: 1 day protection activity (%) against wheat powdery mildew)?
A: Its inhibition at 0.39 µg/mL is 0%.

Q: And the inhibition at 0.78 µg/mL ([3]; Blumeria graminis, 24 h, 0.78 mg/L, read-out: 1 day protection activity (%) against wheat powdery mildew)?
A: Its inhibition at 0.78 µg/mL is 15%.

Q: And the inhibition at 1.56 µg/mL ([3]; Blumeria graminis, 24 h, 1.56 mg/L, read-out: 1 day protection activity (%) against wheat powdery mildew)?
A: Its inhibition at 1.56 µg/mL is 40%.

Q: And the inhibition at 3.125 µg/mL ([3]; Blumeria graminis, 24 h, 3.125 mg/L, read-out: 1 day protection activity (%) against wheat powdery mildew)?
A: Its inhibition at 3.125 µg/mL is 70%.

Q: What about the inhibition at 6.25 µg/mL ([3]; Blumeria graminis, 24 h, 6.25 mg/L, read-out: 1 day protection activity (%) against wheat powdery mildew) of the same molecule?
A: Its inhibition at 6.25 µg/mL is 98%.

Q: And the inhibition at 12.5 µg/mL ([3]; Blumeria graminis, 24 h, 12.5 mg/L, read-out: 1 day protection activity (%) against wheat powdery mildew)?
A: The inhibition at 12.5 µg/mL was 100%.

Q: What about the inhibition at 25 µg/mL ([3]; Blumeria graminis, 24 h, 25 mg/L, read-out: 1 day protection activity (%) against wheat powdery mildew) of the same molecule?
A: Its inhibition at 25 µg/mL is 100%.

Q: Which “control against cucumber downy mildew” value ([2]; 500 mg/L) does the source give for COC(=O)N(OC)c1ccccc1COc1cc(-c2ccc(SC)cc2)nn1C [Compound 8] here?
A: The value was 100%.

Q: What does the source list for COC(=O)N(OC)c1ccccc1COc1c(C)c(-c2ccccc2)nn1C [Compound 63]?
A: activity against rice blast [4]: excellent activity; activity on apple alternaria rot [5]: good activity; control of diamond backmoth [6]: 100%; activity against tomato cercospora leaf mold [7]: moderate activity; activity against tomato late blight [8]: excellent activity; 4 day curative activity (%) against wheat powdery mildew (wheat powdery mildew; 0.39 mg/L): 50%; 4 day curative activity (%) against wheat powdery mildew (wheat powdery mildew; 0.78 mg/L): 80%; 4 day curative activity (%) against wheat powdery mildew (wheat powdery mildew; 1.56 mg/L): 100%; 4 day curative activity (%) against wheat powdery mildew (wheat powdery mildew; 3.125 mg/L): 100%; 4 day curative activity (%) against wheat powdery mildew (wheat powdery mildew; 6.25 mg/L): 100%; 4 day curative activity (%) against wheat powdery mildew (wheat powdery mildew; 12.5 mg/L): 100%; control against cucumber downy mildew ([2]; 25 mg/L): 100%; control against cucumber downy mildew ([2]; 500 mg/L): 100%; activity against cucumber downy mildew ([2]; in words): excellent activity; activity against cucumber powdery mildew [9]: excellent activity; 1 day protection activity (%) against rice sheath blight ([1]; 1.5625 mg/L): 55%; 1 day protection activity (%) against rice sheath blight ([1]; 3.125 mg/L): 60%; 1 day protection activity (%) against rice sheath blight ([1]; 6.25 mg/L): 65%; 1 day protection activity (%) against rice sheath blight ([1]; 12.5 mg/L): 75%; 1 day protection activity (%) against rice sheath blight ([1]; 25 mg/L): 80%; 1 day protection activity (%) against rice sheath blight ([1]; 50 mg/L): 100%; 1 day protection activity (%) against rice sheath blight ([1]; 100 mg/L): 100%; activity against rice sheath blight ([1]; in words): excellent activity; 1 day protection activity (%) against wheat powdery mildew ([3]; 0.19 mg/L): 55%; 1 day protection activity (%) against wheat powdery mildew ([3]; 0.39 mg/L): 75%; 1 day protection activity (%) against wheat powdery mildew ([3]; 0.78 mg/L): 95%; 1 day protection activity (%) against wheat powdery mildew ([3]; 1.56 mg/L): 100%; 1 day protection activity (%) against wheat powdery mildew ([3]; 3.125 mg/L): 100%; 1 day protection activity (%) against wheat powdery mildew ([3]; 6.25 mg/L): 100%; 1 day protection activity (%) against wheat powdery mildew ([3]; 12.5 mg/L): 100%; 1 day protection activity (%) against wheat powdery mildew ([3]; 25 mg/L): 100%; control against wheat powdery mildew [3]: 100%; activity against wheat powdery mildew ([3]; in words): excellent activity; activity against wheat head blight [10]: moderate activity; activity on rape sclerotinia stem rot [11]: good activity; activity on cucumber scab [12]: good activity; control against cucumber anthracnose ([13]; 1.56 mg/L): 100%; control against cucumber anthracnose ([13]; 100 mg/L): 100%; activity against cucumber anthracnose ([13]; in words): excellent activity; activity against corn southern leaf blight [14]: moderate activity

Q: With COC(=O)N(OC)c1ccccc1COc1cc(-c2ccc(Cl)cc2Cl)nn1C [Compound 10] as the molecule, how does the “control against cucumber downy mildew” value ([2]; 500 mg/L) read?
A: The value was 100%.

Q: What about the “control against wheat powdery mildew” value [3] of the same molecule?
A: Its value is 100%.

Q: With COC(=O)N(OC)c1ccccc1COc1cc(-c2ccc(Cl)cc2)nn1C(C)C [Compound 11] as the molecule, how does the “control against cucumber downy mildew” value ([2]; 500 mg/L) read?
A: Its value is 90%.

Q: COC=C(C(=O)OC)c1ccccc1-c1cc(Oc2cc(-c3ccc(Cl)cc3)nn2C(C)C)ncn1 [Compound 194] was tested. Which “control against cucumber downy mildew” value ([2]; 500 mg/L) did it give?
A: The value was 100%.

Q: COC(=O)N(OC)c1ccccc1COc1cc(-c2ccc(Cl)nc2)nn1C [Compound 21] was tested. Which “control against wheat powdery mildew” value [3] did it give?
A: Its value is 100%.

Q: And the “control against cucumber grey mold” value [15]?
A: Its value is 100%.

Q: COC(=O)N(OC)c1ccccc1COc1cc(-c2ccc(Br)cc2)nn1C [Compound 15] was tested. Which “control of green peach aphids” value [16] did it give?
A: The value was 90%.

Q: What about the “control against cucumber downy mildew” value ([2]; 25 mg/L) of the same molecule?
A: The value was 100%.

Q: And the “control against cucumber downy mildew” value ([2]; 500 mg/L)?
A: The value was 100%.
